1 compound from EPA's ToxValDB 9.5 (doi:10.2903/j.efsa.2005.26r) can be followed below.

≈ marks a conversion by molar mass, not a printed value.

In general, NOAEL refers to the highest tested level that showed no adverse finding.

For one data set, the system named is Apis mellifera. The note with it: acute; duration: 48 hours; oral; unspecified; mortality.
Another data set deals with Daphnia magna. Conditions: chronic/long-term; duration: 21 days; reproduction.
The next data set concerns Oncorhynchus mykiss. The note with it: acute; duration: 96 hours; mortality.
For the next data set, the system named is Pimephales promelas. The note with it: chronic/long-term; duration: 28 days.
For another data set, the system named is Tagia sp. The note with it: acute; duration: 14 days; mortality.
The test system of the next data set is Aphidius rhopalosiphi. Kind of data set: LR50; higher = less toxic. The note with it: acute; duration: 48 hours; mortality.

For the compound `CNC(=O)ON=C(SC)C(=O)N(C)C` [Oxamyl], the LD50 amounted to 3.16 mg/kg with Anas platyrhynchos (acute, oral, unspecified, mortality); 0.38 µg/piece with Apis mellifera; 9.5 mg/kg in the data set on Colinus virginianus (acute, oral, mortality); 2.5 mg/kg in the data set with Rattus norvegicus (acute, oral, mortality). Moreover, the NOEC is 50 mg/kg with Anas platyrhynchos (reproductive); 10 mg/kg-day with Colinus virginianus (reproduction developmental); 0.0268 mg/L in the data set on Daphnia magna; 0.5 mg/L in the data set on Pimephales promelas; 1.43 mg/kg-day in the data set on Rattus norvegicus (reproduction developmental). Further, the LC50 came to 340 mg/kg with Anas platyrhynchos (short-term, oral, feed, mortality); 766 mg/kg with Colinus virginianus (acute, oral, diet, mortality); 3.13 µg/mL (≈ 14.3 µM) with Oncorhynchus mykiss; 112 mg/kg in the data set on Tagia sp.. The no observed adverse effect level (NOAEL) in the data set with Rattus norvegicus (acute, oral, gavage, M/F, clinical signs) is 0.1 mg/kg-day. The same compound returned an LR50 with Aphidius rhopalosiphi of 0.03 g/ha.
